How the values were obtained:
Assay type in all cases: in vivo
[1] = system: ECHINOCHLOA ORYZOIDES (ARD.)FRITSCH; assay: Preemergence weed control under flooded paddy conditions, ECHORC (Watergrass (Calif.)); details: for ECHORC herbicidal rating: preemergence weeds, rated three to four weeks after treatment; for Herbicidal effect rating, ECHORC: preemergence, 3-4 weeks after treatment
Procedure, shortened: (§1)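 Seeds or propagules sown in top 0.5 cm of silt loam in undrained containers, flooded 1.5 to 3 cm throughout. Compounds in aqueous/acetone 50/50 v/v pipetted into flood water at about 0.5, 0.25, 0.125 and 0.063 kg/ha. Visual 0-9 rating versus control after three to four weeks in greenhouse.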

CHENOPODIUM ALBUM, L. [2] = assay: Preemergence herbicidal evaluation, CHEAL (Lambsquarters, Common); details: for CHEAL rating: four to five weeks after treatment; for CHEAL herbicidal rating: rated four to five weeks after treatment
Procedure, shortened: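 Rated 0-9 by visual comparison with control (stand, vigor, malformation, size, chlorosis, overall appearance) four to five weeks after preemergence soil spray. Dose equivalent to about 0.125 to 0.50 kg per hectare, applied in aqueous acetone to freshly seeded cups kept in greenhouse.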

[3] = system: AMBROSIA ARTEMISIIFOLIA, L.; assay: Preemergence herbicidal evaluation, AMBEL (Ragweed, Common); details: four to five weeks after treatment
Source text: (§2) Results of herbicide evaluation are expressed on a rating scale (0-9). The scale is based upon a visual observation of plant stand, vigor, malformation, size, chlorosis and overall plant appearance as compared with a control.
(§3) The preemergence herbicidal activity of the test compounds of the present invention is exemplified by the following tests in which the seeds of a variety of monocotyledonous and dicotyledonous plants are separately mixed with potting soil and planted on top of approximately one inch of soil in separate pint cups. […] The treated cups are then placed on greenhouse benches, watered and cared for in accordance with conventional greenhouse procedures. From four to five weeks after treatment, the tests are terminated and each cup is examined and rated according to the rating system provided in Example 40.
(§4) The compounds evaluated are reported by compound number given in Example 40.

CHENOPODIUM ALBUM, L. [4] = assay: Postemergence herbicidal evaluation, CHEAL (Lambsquarters, Common); details: rated four to five weeks after treatment, averaged
Procedure, shortened: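 Seedlings of common lambsquarters (Chenopodium album) were raised in jiffy flats for roughly two weeks, then sprayed postemergence through a nozzle at 40 psi with test compound dispersed in 50/50 acetone/water containing 0.5% TWEEN®20 surfactant. Plants were kept on greenhouse benches under standard care and rated visually on a 0-9 scale versus controls.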

[…], PRESL. = Preemergence weed control under flooded paddy conditions, MOOVA (Monochoria); details: for MOOVA herbicidal rating: preemergence weeds, rated three to four weeks after treatment
Procedure, shortened: as §1

[5] = system: ORYZA SATIVA, L. TEBONNET; assay: Rice tolerance to post-transplant applications under flooded paddy conditions, ORYSAT (Rice, Tebonnet); details: post-transplant rice; for ORYSAT herbicidal rating (rice tolerance): rated three to four weeks after treatment; for Herbicidal effect rating, ORYSAT: 3-4 weeks after treatment;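 for ORYSAT herbicidal rating (rice tolerance): applied to flooded soil surface three days after transplanting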
Procedure, shortened: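 Two ten-day-old Tebonnet rice seedlings were transplanted into silt loam and kept flooded 1.5 to 3 cm deep. Three days after transplanting, the flood surface received the compound in aqueous/acetone 50/50 v/v at about 0.5, 0.25, 0.125 or 0.063 kg/ha. Injury was rated visually on a 0-9 scale versus control after 3-4 weeks.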

[6] = system: ABUTILON THEOPHRASTI, MEDIC.; assay: Postemergence herbicidal evaluation, ABUTH (Velvetleaf); details: rated four to five weeks after treatment, averaged
Procedure, shortened: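 Velvetleaf (Abutilon theophrasti) seedlings were raised in jiffy flats for about two weeks and then sprayed postemergence. The test compound was dispersed in a 50/50 acetone/water mixture containing 0.5% TWEEN®20 and applied through a nozzle operating at 40 psi. Plants were kept on greenhouse benches and rated 0-9 four to five weeks after treatment.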

CYPERUS IRIA = assay: Preemergence weed control under flooded paddy conditions, CYPIR (Rice Flatsedge); details: for CYPIR herbicidal rating: preemergence weeds, rated three to four weeks after treatment
Procedure, shortened: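 Seeds or propagating organs of rice flatsedge were planted in the top 0.5 cm of silt loam soil in 32 oz. plastic containers, 10.5 cm across and without drainage holes. Water was kept 1.5 to 3 cm above the soil throughout. Treated containers were kept on greenhouse benches, and herbicidal effect was visually rated on a 0-9 scale against a control.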

CASSIA OBTUSIFOLIA, L. = assay: Preemergence herbicidal evaluation, CASOB (Sicklepod); details: Rate 0.500 kg/ha, rated four to five weeks after treatment
Source text: as §2, §3, §4

[7] = system: CYPERUS SEROTINUS, ROTTB.; assay: Preemergence weed control under flooded paddy conditions, CYPSE (Flatsedge); details: preemergence, 3-4 weeks after treatment
Procedure, shortened: as §1

SAGITTARIA PYGMAEA, L. = assay: Preemergence weed control under flooded paddy conditions, SAGPY (Arrowhead (Pygmaea)); details: preemergence, 3-4 weeks after treatment
Procedure, shortened: as §1

GALIUM APARINE [8] = assay: Preemergence herbicidal evaluation, GALAP (Galium); details: Rate 0.500 kg/ha, rated four to five weeks after treatment
Source text: as §2, §3, §4

[9] = system: GLYCINE MAX(L) MERR. CV. WILLIAMS; assay: Postemergence herbicidal evaluation, GLXMAW (Soybean, Williams); details: crop, rated four to five weeks after treatment, averaged
Procedure, shortened: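 Soybean seedlings (Williams) were raised in jiffy flats for roughly two weeks, then sprayed postemergence through a nozzle at 40 psi with test compound dispersed in 50/50 acetone/water containing 0.5% TWEEN®20. Treated plants were kept on greenhouse benches under normal care and visually rated on a 0-9 scale four to five weeks later.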

[10] = system: ECHINOCHLOA CRUS-GALLI, (L) BEAU; assay: Postemergence herbicidal evaluation, ECHCG (Barnyardgrass); details: rated four to five weeks after treatment, averaged
Procedure, shortened: (§5)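 Seedlings about two weeks old were sprayed with compound in 50/50 acetone/water containing 0.5% Tween 20 at about 0.125-0.500 kg/ha and kept in the greenhouse. Visual injury was rated on a 0-9 scale versus control 4-5 weeks after treatment; repeat tests were averaged.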

[11] = system: SETARIA VIRIDIS, (L) BEAU; assay: Postemergence herbicidal evaluation, SETVI (Foxtail, Green); details: rated four to five weeks after treatment, averaged
Procedure, shortened: as §5

GALIUM APARINE [12] = assay: Postemergence herbicidal evaluation, GALAP (Galium); details: rated four to five weeks after treatment, averaged
Procedure, shortened: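 Galium (GALAP) seedlings were raised in jiffy flats for about two weeks, then sprayed with test compounds dispersed in 50/50 acetone/water containing 0.5% TWEEN®20, delivered through a nozzle at 40 psi. Plants were kept on greenhouse benches and visually rated 0-9 against a control four to five weeks later; repeat tests were averaged.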

[13] = system: TRITICUM AESTIVUM, CV. APOLLO; assay: Preemergence herbicidal evaluation, TRZAWO (Wheat, Winter, CV. APOLLO); details: rated four to five weeks after treatment
Source text: as §2, §3, §4

[14] = 0.500 kg/ha, preemergence, 3-4 weeks after treatment

COC(=O)C(C)n1c(=O)n(C)c(=O)n(-c2cc(Oc3c(F)cc(C(F)(F)F)cc3Cl)ccc2Br)c1=O (stereo not drawn) [Compound 1, Methyl 3-{2-bromo-5-[(2-chloro-α,α,α,6-tetrafluoro-p-tolyl)oxy]phenyl}tetrahydro-α,5-dimethyl-2,4,6-trioxo-s-triazine-1(2H)-acetate]
ECHORC herbicidal rating ([1]; Rate 0.125 kg/ha): 9.0
ECHORC herbicidal rating ([1]; Rate 0.250 kg/ha): 9.0
ECHORC herbicidal rating ([1]; Rate 0.500 kg/ha): 9.0
CHEAL rating (CHENOPODIUM ALBUM, L. [2]; Rate 0.125 kg/ha): 9.0
CHEAL rating (CHENOPODIUM ALBUM, L. [2]; Rate 0.250 kg/ha): 9.0
CHEAL rating (CHENOPODIUM ALBUM, L. [2]; Rate 0.500 kg/ha): 9.0
AMBEL rating ([3]; Rate 0.125 kg/ha): 0.0
AMBEL rating ([3]; Rate 0.250 kg/ha): 0.0
AMBEL rating ([3]; Rate 0.500 kg/ha): 0.0
CHEAL, herbicide rating (0-9) (CHENOPODIUM ALBUM, L. [4]; Rate 0.125 kg/ha): 9.0
CHEAL, herbicide rating (0-9) (CHENOPODIUM ALBUM, L. [4]; Rate 0.250 kg/ha): 9.0
CHEAL, herbicide rating (0-9) (CHENOPODIUM ALBUM, L. [4]; Rate 0.500 kg/ha): 9.0
MOOVA herbicidal rating ([…], PRESL.; Rate 0.125 kg/ha): 9.0
MOOVA herbicidal rating ([…], PRESL.; Rate 0.250 kg/ha): 9.0
MOOVA herbicidal rating ([…], PRESL.; Rate 0.500 kg/ha): 9.0
ORYSAT herbicidal rating (rice tolerance) ([5]; Rate 0.125 kg/ha): 1.0
ORYSAT herbicidal rating (rice tolerance) ([5]; Rate 0.250 kg/ha): 2.0
ORYSAT herbicidal rating (rice tolerance) ([5]; Rate 0.500 kg/ha): 3.0
ABUTH, herbicide rating (0-9) ([6]; Rate 0.125 kg/ha): 9.0
ABUTH, herbicide rating (0-9) ([6]; Rate 0.250 kg/ha): 9.0
ABUTH, herbicide rating (0-9) ([6]; Rate 0.500 kg/ha): 9.0
CYPIR herbicidal rating (CYPERUS IRIA; Rate 0.125 kg/ha): 9.0
CYPIR herbicidal rating (CYPERUS IRIA; Rate 0.250 kg/ha): 9.0
CYPIR herbicidal rating (CYPERUS IRIA; Rate 0.500 kg/ha): 9.0

COC(=O)Cn1c(=O)n(C)c(=O)n(-c2cc(Oc3ccc(F)cc3C(F)(F)F)ccc2[N+](=O)[O-])c1=O [Compound 21]
CASOB herbicidal rating (CASSIA OBTUSIFOLIA, L.): 7.0
Herbicidal effect rating, CYPSE ([7]; 0.063 kg/ha): 0.0
Herbicidal effect rating, CYPSE ([7]; 0.125 kg/ha): 0.0
Herbicidal effect rating, CYPSE ([7]; 0.250 kg/ha): 0.0
Herbicidal effect rating, CYPSE ([7]; 0.500 kg/ha): 0.0
Herbicidal effect rating, SAGPY (SAGITTARIA PYGMAEA, L.; 0.063 kg/ha): 0.0
Herbicidal effect rating, SAGPY (SAGITTARIA PYGMAEA, L.; 0.125 kg/ha): 0.0
Herbicidal effect rating, SAGPY (SAGITTARIA PYGMAEA, L.; 0.250 kg/ha): 0.0
Herbicidal effect rating, SAGPY (SAGITTARIA PYGMAEA, L.; 0.500 kg/ha): 0.0
GALAP herbicidal rating (GALIUM APARINE [8]): 9.0
GLXMAW, herbicide rating (0-9) ([9]; Rate 0.125 kg/ha): 4.0
GLXMAW, herbicide rating (0-9) ([9]; Rate 0.250 kg/ha): 4.0
GLXMAW, herbicide rating (0-9) ([9]; Rate 0.500 kg/ha): 4.0
Herbicidal effect rating, ORYSAT ([5]; 0.063 kg/ha): 0.0
Herbicidal effect rating, ORYSAT ([5]; 0.125 kg/ha): 0.0
Herbicidal effect rating, ORYSAT ([5]; 0.250 kg/ha): 0.0
Herbicidal effect rating, ORYSAT ([5]; 0.500 kg/ha): 0.5

COC(=O)Cn1c(=O)n(C)c(=O)n(-c2cc(Oc3ccc([N+](=O)[O-])cc3F)ccc2[N+](=O)[O-])c1=O [Compound 24, Methyl 3-[5-(2-fluoro-4-nitrophenoxy)-2-nitrophenyl]tetrahydro-5-methyl-2,4,6-trioxo-s-triazine-1(2H)-acetate]
CASOB herbicidal rating (CASSIA OBTUSIFOLIA, L.): 0.0
Herbicidal effect rating, CYPSE ([7]; 0.500 kg/ha): 0.0
Herbicidal effect rating, ECHORC ([1]; 0.500 kg/ha): 0.0
Herbicidal effect rating, SAGPY (SAGITTARIA PYGMAEA, L.; 0.500 kg/ha): 0.0
GALAP herbicidal rating (GALIUM APARINE [8]): 0.0
ECHCG, herbicide rating (0-9) ([10]; Rate 0.125 kg/ha): 0.0
ECHCG, herbicide rating (0-9) ([10]; Rate 0.250 kg/ha): 0.0
ECHCG, herbicide rating (0-9) ([10]; Rate 0.500 kg/ha): 0.0
SETVI, herbicide rating (0-9) ([11]; Rate 0.125 kg/ha): 0.0
SETVI, herbicide rating (0-9) ([11]; Rate 0.250 kg/ha): 0.0
SETVI, herbicide rating (0-9) ([11]; Rate 0.500 kg/ha): 0.0
Herbicidal effect rating, MOOVA ([…], PRESL.; [14]): 0.0
Herbicidal effect rating, ORYSAT ([5]; 0.500 kg/ha): 0.0
GALAP, herbicide rating (0-9) (GALIUM APARINE [12]; Rate 0.125 kg/ha): 2.0
GALAP, herbicide rating (0-9) (GALIUM APARINE [12]; Rate 0.250 kg/ha): 2.0
GALAP, herbicide rating (0-9) (GALIUM APARINE [12]; Rate 0.500 kg/ha): 2.0
Herbicidal effect rating, CYPIR (CYPERUS IRIA; [14]): 0.0

COC(=O)Cn1c(=O)n(C)c(=O)n(-c2cc(Oc3ccc(Cl)cc3Cl)ccc2Br)c1=O [Compound 43, Methyl 3-[2-bromo-5-(2,4-dichlorophenoxy)-phenyl]tetrahydro-5-methyl-2,4,6-trioxo-s-triazine-1(2H)-acetate]
Herbicidal effect rating, ECHORC ([1]; 0.063 kg/ha): 9.0
Herbicidal effect rating, ECHORC ([1]; 0.125 kg/ha): 9.0
Herbicidal effect rating, ECHORC ([1]; 0.250 kg/ha): 9.0
Herbicidal effect rating, ECHORC ([1]; 0.500 kg/ha): 9.0
CHEAL herbicidal rating (CHENOPODIUM ALBUM, L. [2]; Rate 0.125 kg/ha): 9.0
CHEAL herbicidal rating (CHENOPODIUM ALBUM, L. [2]; Rate 0.250 kg/ha): 9.0
CHEAL herbicidal rating (CHENOPODIUM ALBUM, L. [2]; Rate 0.500 kg/ha): 9.0
TRZAWO herbicidal rating ([13]; Rate 0.125 kg/ha): 0.5
TRZAWO herbicidal rating ([13]; Rate 0.250 kg/ha): 0.5
TRZAWO herbicidal rating ([13]; Rate 0.500 kg/ha): 0.5
Herbicidal effect rating, ORYSAT ([5]; 0.063 kg/ha): 2.0
Herbicidal effect rating, ORYSAT ([5]; 0.125 kg/ha): 3.0
Herbicidal effect rating, ORYSAT ([5]; 0.250 kg/ha): 4.0
Herbicidal effect rating, ORYSAT ([5]; 0.500 kg/ha): 4.0

— patent EP0745595A1, “3-(3-Aryloxyphenyl)-1-(substituted methyl)-s-triazine-2,4,6-oxo or thiotrione herbicidal agents” (American Cyanamid Company, priority 1995, dated 1996)
